# What was measured:
# C57BL/6 mice = assay: Toxicity observation in mice given Psd1 alone; assay type: in vivo
# Description: Another group of animals received 1 mg/kg of Psd1 only (n = 9) to evaluate Psd1 toxicity. Twenty-one days later, the animals were anaesthetized and sacrificed, and the black lung melanoma nodules were counted and measured under a dissecting microscope (Zeiss AxioPhot fluorescence microscope (Carl-Zeiss, Oberkochen, Germany)).
# [1] = Body weight of mice in the B16F10 metastasis experiment; assay type: in vivo, mouse; details: 0.1, 1 and 3 mg/kg Psd1 i.v. with B16F10 cells, 21 days; animals with B16F10 only lost weight
# Source text: Figure 6 Protective effects of Psd1 on a model of experimental lung metastasis in vivo. B16F10 mouse melanoma tumors were established by intravenous injection of 2.5 × 10^5 B16F10 cells into C57BL/6 mice. (A) After 21 days, mice from each experimental group were sacrificed, and the number of visible lung metastatic nodules was quantified. Treatment of the animals inoculated with melanoma cells plus Psd1 caused a dose-dependent reduction in the number of lung metastases. Black lines represent the mean ± SEM of two independent experiments analyzed by one-way ANOVA and Bonferroni’s multiple comparison test. **** p < 0.0001 B16F10 vs. phosphate buffer solution (PBS); **** p < 0.0001 B16F10 vs. Psd1 1 mg/kg; **** p < 0.0001 B16F10 vs. just Psd1 1 mg/kg (without B16F10 cells); *** p < 0.001 B16F10 vs. Psd1 3 mg/kg; * p < 0.05 B16F10 vs. Psd1 0.5 mg/kg. (B) Representative images of lung metastatic nodules from animals that received just PBS or B16F10 cells alone or together with 0.1 mg/kg or 1 mg/kg Psd1. Bar = 2 mm. (C) Animal weights were acquired every two days. Weight variation was calculated as (weight on that day (weight of the first day × 100 − 100)). Only the days with higher weight differences between animals injected with only B16F10 cells and those that received cells plus Psd1 or PBS alone are represented. […]
# B16F10 cells = assay: SYTOXGreen uptake (membrane permeabilization), B16F10 cells; assay type: cell-based, murine
# Description: Figure 2 Psd1 promotes B16F10 live cell membrane permeabilization as monitored by SYTOX Green fluorescence. (A) Psd1 untreated and hydrogen peroxide-treated B16F10 cells. (B) A total of 1.5 × 10^4 B16F10 cells were incubated with 3 or 50 µM Psd1 for 30 min. (C) 1.5 × 10^4 B16F10 cells were incubated with 50 µM Psd1 for 1 h. All experiments were performed at 37 °C. Nucleus staining is shown in green (SYTOXGreen), and mitochondria are shown in red (MitoTracker Red CMXRos). Images are shown at 20× magnification. […] (E) Psd1 induces apoptosis in B16F10 cells. B16F10 cells were treated with 50 µM Psd1 for 24 h and labeled with propidium iodide, and the DNA content was analyzed by flow cytometry for the sub-G0/G1 profile. At least two independent experiments were performed. TEXT PRINTED IN THE PICTURE: (E) Control: Sub-G1: 4.4% | (E) Psd1: Sub-G1: 60.6% (50μM)
# Images were obtained in the X, Y, and Z planes of the image, giving the image a 3-dimensional depth (Z-stack) at 100× magnification with a Zeiss Cell Observer Yokogawa Spinning Disk confocal microscope (Cell Observed SD, Carl-Zeiss, Oberkochen, Germany) located in the Microscopia Óptica de Luz Gustavo de Oliveira Castro (Plamol) platform in Universidade Federal do Rio de Janeiro. To measure the mean fluorescence intensity (MFI), Zen Lite Blue (Carl-Zeiss, Oberkochen, Germany) software was used. On average, thirty cells per field were analyzed in fourteen fields by experiments. Then, the region of interest (ROI), specifically the nucleus and mitochondria, was tagged on the cells photographed for fluorescence analysis, which is given by the software from the intensity of the pixels. Subsequently, the statistical test was performed using GraphPad Prism version 7.4, and the values presented are averages with the corresponding standard deviations (SDs).
# B16F10 cells were trypsinized and counted, and 1.5 × 10^4 cells/well in DMEM containing 0.1% (w/v) bovine serum albumin BSA were plated in a cell-view glass bottom culture dish with four compartments (Thermo Fisher Scientific Inc, Maryland, USA) and then incubated at 37 °C overnight to adhere. Post-treatment, the cells were treated with 3 or 50 µM Psd1 for 30 or 60 min and maintained at the same temperature. Cells treated with only water or 0.0001% H2O2 for 30 min were used as the negative and positive controls, respectively. Washes with saline were carried out between the additions of each probe followed by incubation at room temperature. The cells were incubated with 1 µL of SG, 1.5 µL of MitoTracker Red CMXRos, and 2 µL of DAPI for 10, 20, and 10 min, respectively. The fluorescent images were acquired by confocal microscopy.
# [2] = tested on: fungal mutants lacking glucosylceramide synthase; details: cited from earlier work
substance,measurement,setting,value
"Psd1: 46-amino acid residue plant defensin isolated from pea seeds, expressed in Pichia pastoris (PDB 1JKZ) (KTCEHLADTYRGVCFTNASCDDHCKNKAHLISGTCHNWKCFCTQNC)","Inflammation in lung tissue, weight or vital signal losses","C57BL/6 mice; 1 mg/kg Psd1 alone, over 21 days",did not provoke inflammation in lung tissue or weight or vital signal losses over 21 days
same,Behavior signals / mortality,"C57BL/6 mice; Psd1 alone (1 mg/kg i.v.), vs PBS","did not present changes in important behavior signals, such as changes in locomotion, piloerection, diarrhea, or mortality"
same,Body weight,[1],gained weight throughout the assay
same,"SYTOXGreen entrance, nuclear staining","B16F10 cells; 3 µM and 50 µM, 30 min, 37 °C",intense green nuclear staining
same,Cell adhesion / shape,"B16F10 cells; 50 µM, 1 h","started to lose their adhesion capacity, assuming a less spread shape"
same,SYTOXGreen fluorescence signal,"B16F10 cells; 50 µM, 1 h, 37 °C, p < 0.0001 vs 3 and 50 µM for 30 min",increased significantly
same,Resistance of mutants to Psd1 antifungal activity and permeabilization,[2],partially resistant
